These are literature values, as cited in patent EP0985412B1, “Cyclosporin compositions” (Panacea Biotec Limited, priority 1998, dated 2000).

The data set relates to normal epithelial tissue and Peyer's patch tissue of guinea pigs.

Take Choleic acid: the “absorption raised by a factor” value is 5-6.
